# From patent publication US11091478B2 (Fochon Pharmaceuticals, Ltd., priority 2017, dated 2021)
# Read-outs that look alike come from different tables or passages of the source.
# Tests used:
# [1] = system: RS4;11 cells; assay: Cell proliferation assay (MTS), RS4;11 cells, 72 h; type: cell-based
# Procedure, shortened: (§1)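 Treatment lasts 72 h for RS4;11 and 120 h for DOHH2 cells seeded at 5000 per well in serum-containing RPMI-1640. A 2 h MTS step, halted with 10% SDS, precedes dual-wavelength absorbance reading and IC50 fitting.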
# [2] = system: DOHH2 cells; assay: Cell proliferation assay (MTS), DOHH2 cells, 120 h; type: cell-based
# Procedure, shortened: as §1
"IC50 ([1]; Homo sapiens, RS4-11, 72 h)",IC50 [1],SMILES,"IC50 ([2]; Homo sapiens, DOHH-2, 120 h)",IC50 [2]
29 nM,–,"CO[C@H]1CC[C@H](OC[C@@H]2COc3cc(S(=O)(=O)NC(=O)c4ccc(N5CCN(CC6=C(c7ccc(Cl)cc7)CCC(C)(C)C6)CC5)cc4Oc4cnc5[nH]ccc5c4)cc([N+](=O)[O-])c3N2)CC1 [Example 2-252, 2-((1H-pyrrolo[2,3-b]pyridin-5-yl)oxy)-4-(4-((4′-chloro-4,4-dimethyl-3,4,5,6-tetrahydro-[1,1′-biphenyl]-2-yl)methyl)piperazin-1-yl)-N-(((R)-3-((((1r,4R)-4-methoxycyclo-hexyl)oxy)methyl)-5-nitro-3,4-dihydro-2H-benzo[b][1,4]oxazin-7-yl)sulfonyl)benzamide]",83 nM,–
1 nM,–,"CN1CCN(C[C@@H]2CSc3cc(S(=O)(=O)NC(=O)c4ccc(N5CCN(CC6=C(c7ccc(Cl)cc7)CC(C)(C)CC6)CC5)cc4Oc4cnc5[nH]ccc5c4)cc([N+](=O)[O-])c3N2)CC1 [Example 3-1, (R)-2-((1H-pyrrolo[2,3-b]pyridin-5-yl)oxy)-4-(4-((4′-chloro-5,5-dimethyl-3,4,5,6-tetrahydro-[1,1′-biphenyl]-2-yl)methyl)piperazin-1-yl)-N-((3-((4-methylpiperazin-1-yl)methyl)-5-nitro-3,4-dihydro-2H-benzo[b][1,4]thiazin-7-yl)sulfonyl)benzamide]",3 nM,–
3 nM,–,"CC1(C)CCC(CN2CCN(c3ccc(C(=O)NS(=O)(=O)c4cc5c(c([N+](=O)[O-])c4)N[C@H](CCN4CCOCC4)CS5)c(Oc4cnc5[nH]ccc5c4)c3)CC2)=C(c2ccc(Cl)cc2)C1 [Example 3-2, (R)-2-((1H-pyrrolo[2,3-b]pyridin-5-yl)oxy)-4-(4-((4′-chloro-5,5-dimethyl-3,4,5,6-tetrahydro-[1,1′-biphenyl]-2-yl)methyl)piperazin-1-yl)-N-((3-(2-morpholinoethyl)-5-nitro-3,4-dihydro-2H-benzo[b][1,4]thiazin-7-yl)sulfonyl)benzamide]",13 nM,–
35 nM,–,"CC1(C)CCC(CN2CCN(c3ccc(C(=O)NS(=O)(=O)c4cc5c(c([N+](=O)[O-])c4)N[C@H](CN4CCOCC4)CS5)c(Oc4cnc5[nH]ccc5c4)c3)CC2)=C(c2ccc(Cl)cc2)C1 [Example 3-3, (R)-2-((1H-pyrrolo[2,3-b]pyridin-5-yl)oxy)-4-(4-((4′-chloro-5,5-dimethyl-3,4,5,6-tetra-hydro-[1,1′-biphenyl]-2-yl)methyl)piperazin-1-yl)-N-((3-(morpholinomethyl)-5-nitro-3,4-dihydro-2H-benzo[b][1,4]thiazin-7-yl)sulfonyl)benzamide]",58 nM,–
12 nM,–,"CN(C)C[C@@H]1CSc2cc(S(=O)(=O)NC(=O)c3ccc(N4CCN(CC5=C(c6ccc(Cl)cc6)CC(C)(C)CC5)CC4)cc3Oc3cnc4[nH]ccc4c3)cc([N+](=O)[O-])c2N1 [Example 3-4, (R)-2-((1H-pyrrolo[2,3-b]pyridin-5-yl)oxy)-4-(4-((4′-chloro-5,5-dimethyl-3,4,5,6-tetra-hydro-[1,1′-biphenyl]-2-yl)methyl)piperazin-1-yl)-N-((3-((dimethylamino)methyl)-5-nitro-3,4-dihydro-2H-benzo[b][1,4]thiazin-7-yl)sulfonyl)benzamide]",41 nM,–
8 nM,–,"CC1(C)CCC(CN2CCN(c3ccc(C(=O)NS(=O)(=O)c4cc5c(c([N+](=O)[O-])c4)N[C@H](CO)CS5)c(Oc4cnc5[nH]ccc5c4)c3)CC2)=C(c2ccc(Cl)cc2)C1 [Example 3-5, (R)-2-((1H-pyrrolo[2,3-b]pyridin-5-yl)oxy)-4-(4-((4′-chloro-5,5-dimethyl-3,4,5,6-tetra-hydro-[1,1′-biphenyl]-2-yl)methyl)piperazin-1-yl)-N-((3-(hydroxymethyl)-5-nitro-3,4-dihydro-2H-benzo[b][1,4]thiazin-7-yl)sulfonyl) benzamide]",12 nM,–
8 nM,–,"COC[C@@H]1CSc2cc(S(=O)(=O)NC(=O)c3ccc(N4CCN(CC5=C(c6ccc(Cl)cc6)CC(C)(C)CC5)CC4)cc3Oc3cnc4[nH]ccc4c3)cc([N+](=O)[O-])c2N1 [Example 3-6, (R)-2-((1H-pyrrolo[2,3-b]pyridin-5-yl)oxy)-4-(4-((4′-chloro-5,5-dimethyl-3,4,5,6-tetra-hydro-[1,1′-biphenyl]-2-yl)methyl)piperazin-1-yl)-N-((3-(methoxymethyl)-5-nitro-3,4-dihydro-2H-benzo[b][1,4]thiazin-7-yl)sulfonyl)benzamide]",14 nM,–

# The remaining lines, values behind:
SMILES,"IC50 ([1]; Homo sapiens, RS4-11, 72 h)",IC50 [1],"IC50 ([2]; Homo sapiens, DOHH-2, 120 h)",IC50 [2]
"CC1(C)CCC(c2ccc(Cl)cc2)=C(CN2CCN(c3ccc(C(=O)NS(=O)(=O)c4cc5c(c([N+](=O)[O-])c4)N[C@H](CO[C@H]4CC[C@H](O)CC4)CO5)c(Oc4cnc5[nH]ccc5c4)c3)CC2)C1 [Example 2-243, 2-((1H-pyrrolo[2,3-b]pyridin-5-yl)oxy)-4-(4-((4′-chloro-4,4-dimethyl-3,4,5,6-tetrahydro-[1,1′-biphenyl]-2-yl)methyl)piperazin-1-yl)-N-(((R)-3-((((1r,4R)-4-hydroxycyclo-hexyl)oxy)methyl)-5-nitro-3,4-dihydro-2H-benzo[b][1,4]oxazin-7-yl)sulfonyl)benzamide]",9 nM,–,1 nM,–
"CC1(C)CCC(CN2CCN(c3ccc(C(=O)NS(=O)(=O)c4cc5c(c([N+](=O)[O-])c4)N[C@@H](C4CCC(O)CC4)CO5)c(Oc4cnc5[nH]ccc5c4)c3)CC2)=C(c2ccc(Cl)cc2)C1 (stereo partly drawn) [Example 2-245A, (S)-2-((1H-pyrroo[2,3-b]pyridin-5-yl)oxy)-4-(4-((4′-chloro-5,5-dimethyl-3,4,5,6-tetra-hydro-[1,1′-biphenyl]-2-yl)methyl)piperazin-1-yl)-N-((3-(4-hydroxycyclohexyl)-5-nitro-3,4-dihydro-2H-benzo[b][1,4]oxazin-7-yl)sulfonyl)benzamide]",1 nM,–,1 nM,–
"COC1CCC(C[C@H]2COc3cc(S(=O)(=O)NC(=O)c4ccc(N5CCN(CC6=C(c7ccc(Cl)cc7)CC(C)(C)CC6)CC5)cc4Oc4cnc5[nH]ccc5c4)cc([N+](=O)[O-])c3N2)CC1 (stereo partly drawn) [Example 2-246B, (S)-2-((1H-pyrrolo[2,3-b]pyridin-5-yl)oxy)-4-(4-((4′-chloro-5,5-dimethyl-3,4,5,6-tetra-hydro-[1,1′-biphenyl]-2-yl)methyl)piperazin-1-yl)-N-((3-((4-methoxycyclohexyl)meth-yl)-5-nitro-3,4-dihydro-2H-benzo[b][1,4]oxa-zin-7-yl)sulfonyl)benzamide]",29 nM,–,13 nM,–
COC1CCC([C@H]2COc3cc(S(=O)(=O)NC(=O)c4ccc(N5CCN(CC6=C(c7ccc(Cl)cc7)CC(C)(C)CC6)CC5)cc4Oc4cnc5[nH]ccc5c4)cc([N+](=O)[O-])c3N2)CC1 (some centres unmarked) [Example 2-247A],24 nM,–,19 nM,–
"COC1CCC([C@H]2COc3cc(S(=O)(=O)NC(=O)c4ccc(N5CCN(CC6=C(c7ccc(Cl)cc7)CC(C)(C)CC6)CC5)cc4Oc4cnc5[nH]ccc5c4)cc([N+](=O)[O-])c3N2)CC1 (stereo partly drawn) [Example 2-247B, (S)-2-((1H-pyrrolo[2,3-b]pyridin-5-yl)oxy)-4-(4-((4′-chloro-5,5-dimethyl-3,4,5,6-tetra-hydro-[1,1′-biphenyl]-2-yl)methyl)piperazin-1-yl)-N-((3-(4-methoxycyclohexyl)-5-nitro-3,4-dihydro-2H-benzo[b][1,4]oxazin-7-yl)sulfonyl)benzamide]",–,45 nM,–,36 nM
"COC1CCC([C@@H]2COc3cc(S(=O)(=O)NC(=O)c4ccc(N5CCN(CC6=C(c7ccc(Cl)cc7)CC(C)(C)CC6)CC5)cc4Oc4cnc5[nH]ccc5c4)cc([N+](=O)[O-])c3N2)CC1 (stereo partly drawn) [Example 2-248A, (R)-2-((1H-pyrrolo[2,3-b]pyridin-5-yl)oxy)-4-(4-((4′-chloro-5,5-dimethyl-3,4,5,6-tetra-hydro-[1,1′-biphenyl]-2-yl)methyl)piperazin-1-yl)-N-((3-(4-methoxycyclohexyl)-5-nitro-3,4-dihydro-2H-benzo[b][1,4]oxazin-7-yl)sulfonyl)benzamide]",35 nM,–,27 nM,–
"COC1CCC([C@@H]2COc3cc(S(=O)(=O)NC(=O)c4ccc(N5CCN(CC6=C(c7ccc(Cl)cc7)CC(C)(C)CC6)CC5)cc4Oc4cnc5[nH]ccc5c4)cc([N+](=O)[O-])c3N2)CC1 (stereo partly drawn) [Example 2-248B, (R)-2-((1H-pyrrolo[2,3-b]pyridin-5-yl)oxy)-4-(4-((4′-chloro-5,5-dimethyl-3,4,5,6-tetra-hydro-[1,1′-biphenyl]-2-yl)methyl)piperazin-1-yl)-N-((3-(4-methoxycyclohexyl)-5-nitro-3,4-dihydro-2H-benzo[b][1,4]oxazin-7-yl)sulfonyl)benzamide]",–,64 nM,–,14 nM
"CC1(C)CCC(CN2CCN(c3ccc(C(=O)NS(=O)(=O)c4cc5c(c([N+](=O)[O-])c4)N[C@H](CO[C@H]4CC[C@H](O)CC4)CO5)c(Oc4cnc5[nH]ccc5c4)c3)CC2)=C(c2ccc(Cl)cc2)C1 [Example 2-250, 2-((1H-pyrrolo[2,3-b]pyridin-5-yl)oxy)-4-(4-((4′-chloro-5,5-dimethyl-3,4,5,6-tetrahydro-[1,1′-biphenyl]-2-yl)methyl)piperazin-1-yl)-N-(((R)-3-((((1r,4R)-4-hydroxycyclo-hexyl)oxy)methyl)-5-nitro-3,4-dihydro-2H-benzo[b][1,4]oxazin-7-yl)sulfonyl)benzamide]",1 nM,–,7 nM,–
"CO[C@H]1CC[C@H](OC[C@@H]2COc3cc(S(=O)(=O)NC(=O)c4ccc(N5CCN(CC6=C(c7ccc(Cl)cc7)CC(C)(C)CC6)CC5)cc4Oc4cnc5[nH]ccc5c4)cc([N+](=O)[O-])c3N2)CC1 [Example 2-251, 2-((1H-pyrrolo[2,3-b]pyridin-5-yl)oxy)-4-(4-((4′-chloro-5,5-dimethyl-3,4,5,6-tetrahydro-[1,1′-biphenyl]-2-yl)methyl)piperazin-1-yl)-N-(((R)-3-((((1r,4R)-4-methoxycyclohex-yl)oxy)methyl)-5-nitro-3,4-dihydro-2H-benzo[b][1,4]oxazin-7-yl)sulfonyl)benzamide]",1 nM,–,44 nM,–
